Like-named read-outs stand apart in the source and are kept apart here.
Tests used:
[1] = acute toxicity, oral administration, solution in Tween; settings: mouse, in vivo, souris, voie orale; for mortality: solution dans le Tween, read-out: mortalité
Procedure: (§1) La toxicité a été déterminée chez la souris. En solution dans le Tween et après administration par voie orale le COR37 05C entraine 0 % de mortalité à 500 mg/kg, 40 % à 750 et 40 % à 1000; le COR37 06C entraine 0 % de mortalité à 100 mg/kg, 10 % à 200, 10 % à 250, 90 % à 375, 100 % à 500 (DL50 = 294 mg/kg (261-332); les COR37 09C, COR37 49C et COR37 50C entrainent 0 % de mortalité à 300 mg/kg. En solution dans le Tween et après administration par voie intrapéritonéale le COR37 05C entraine 0 % de

[2] = acute toxicity, intraperitoneal administration, solution in Tween; assay type: in vivo; settings: mouse, in vivo, ip, souris, voie intrapéritonéale, solution dans le Tween, read-out: mortalité
[3] = acute toxicity, intravenous administration; settings: mouse, in vivo, souris, voie intraveineuse, limits (53,8 - 59,5), read-out: DL50 (the source's name)
Procedure: as §1
Par voie intraveineuse le COR37 05C présente une DL50 de 56,6 mg/kg (53,8 - 59,5).

[4] = test system: souris soumise à une anesthésie chloroformique profonde; assay: antiarrhythmic activity, mouse under deep chloroform anaesthesia; assay type: in vivo; settings: ip, read-out: dose active (activité antiarythmique)
Procedure: L'activité antiarythmique a été déterminée sur plusieurs modèles expérimentaux. Dans le modèle de la souris soumise à une anesthésie chloroformique profonde le COR37 05C et le COR37 06C présentent après administration intrapéritonéale une activité antiarythmique dès la dose de 25 mg/kg; le COR37 50C est actif sur ce même modèle à 100 mg/kg. Le propranolol est actif dans les mêmes conditions à la dose de 40 mg/kg et la quinidine à la dose de 100 mg/kg.

[5] = test system: oreillette isolée de cobaye stimulée électriquement; assay: antiarrhythmic activity in vitro, electrically stimulated isolated guinea pig atrium; assay type: cell-based; settings: read-out: Ci30
From the text: In vitro dans le modèle de l'oreillette isolée de cobaye stimulée électriquement le COR37 05C et le COR37 06C sont actifs avec des Ci30 de respectivement 6,22 (4,37-8,86) 10^-6 M/1 et 7,26.10^-6 (4,68.10^-6-1,12.10^-5) M/1 contre 10^-5 M/1 pour la procaïne, 4.10^-6 M/1 pour la quinidine et 4,5.10^-6 M/l pour le propranolol.

[6] = test system: arythmies induites par l'aconitine; assay: aconitine-induced arrhythmias in the rat; assay type: in vivo; settings: for pourcentage d'animaux ne présentant pas de fibrilloflutters: voie orale
Procedure: Ces produits ont été testés dans le modèle des arythmies induites par l'aconitine chez le rat. Les résultats sont exprimés par le pourcentage d'augmentation de la quantité d'aconitine provoquant l'apparition d'extrasystoles (E), de fibrilloflutters (F), de tachycardies (T) et de morts (M). Administrés par voie intraveineuse 1 mn avant la perfusion d'aconitine, le COR37 05C entraine à 10 mg/kg 78 % (E), 87 % (T) et 83 % (M) d'activité et le COR37 06C à 5 mg/kg entraine 45 % (E), 39 % (T) et 79 % (M) d'activité. Administrés par voie orale 45 mn avant la perfusion d'aconitine à 100 mg/kg, le COR37 05C entraine 83 % (E), 99 % (T), 43 % (F) et 107 % (M) d'activité et le COR37 06C 25 % (E), 32 % (T), 29 % (F) et 105 % (M) d'activité. De plus le pourcentage d'animaux ne présentant pas de fibrilloflutters après administration de 100 mg/kg de COR37 05C et COR37 )6C par voie orale est respectivement de 70 et 60 %.

cornée de cobaye = assay: local anaesthetic activity, guinea pig cornea with tactile stimulus; assay type: in vivo; settings: concentration de 0,5 %
From the text: L'activité anesthésique locale a été déterminée dans le test de la cornée de cobaye soumise à un stimulus tactile. Le COR37 06C employé à la concentration de 0,5 % est actif pendant 30 mn.

[7] = test system: plasma riche en plaquettes (PRP) de lapin; assay: platelet aggregation in vitro induced by bovine collagen in rabbit PRP; assay type: cell-based; settings: 1 microg/ml, 0,05 ml de collagène bovin, read-out: inhibition de l'agrégation plaquettaire
Procedure: (§2) L'activité antiagrégante plaquettaire a été déterminée in vitro. Quand l'agrégation est induite par 0,05 ml d'une préparation standardisée de collagène bovin dans un plasma riche en plaquettes (PRP) de lapin, le COR37 06C entraine 100 % d'inhibition à 1 microg/ml alors que l'aspirine dans les mêmes conditions est active à 10 microg/ml et l'indométacine à 0,5 microg/ml. Dans le modèle de l'agrégation plaquettaire induite par […] d'ADP dans un PRP de lapin, à 100 microg/ml, le COR37 09C entraine 79 % d'activité, le COR37 50C entraine 80 % d'activité et l'adénosine 64 %.

PRP de lapin = assay: platelet aggregation in vitro induced by ADP in rabbit PRP; assay type: cell-based; settings: Oryctolagus cuniculus, 100 microg/ml, d'ADP, read-out: activité (agrégation plaquettaire induite par ADP)
Procedure: as §2

souris = assay: acute toxicity, intraperitoneal administration, solution in Tween; assay type: in vivo; settings: voie intrapéritonéale, 200 mg/kg, solution dans le Tween
[8] = test system: oreillette gauche de cobaye; assay: calcium-antagonist activity in vitro, electrically stimulated guinea pig left atrium in low-calcium Tyrode; assay type: cell-based; settings: 100 Microg/ml; 150 battements/mn, Tyrode pauvre en calcium (0,6mM), addition de 0,6 mM de calcium
Procedure: L'activité anticalcique a été déterminée in vitro sur oreillette gauche de cobaye stimulée électriquement à 150 battements/mn dans une solution de Tyrode pauvre en calcium (0,6mM).

[9] = test system: souris rendue hypercholestérolémique; assay: hypolipidaemic activity, hypercholesterolaemic mouse (cholesterol and cholic acid diet, 7 days); assay type: in vivo; settings: voie orale le 6e et le 7e jour, 400 mg/kg
Procedure: L'activité hypolipidémiante a été mise en évidence chez la souris rendue hypercholestérolémique par un régime riche en cholestérol et acide cholique pendant 7 jours. Ainsi l'administration par voie orale du COR37 49C le 6e et le 7e jour, entraine une diminution du cholestérol sérique de 22 % à la dose de 400 mg/kg.

[10] = test system: rat en surcharge hydrique; assay: diuretic activity, water-loaded rat; assay type: in vivo; settings: dose orale de 20 mg/kg, fold factor
Procedure: L'activité diurétique a été déterminée chez le rat. Ainsi le COR37 49C administré au rat en surcharge hydrique à la dose orale de 20 mg/kg multiplie par 2,2 l'excrétion urinaire de sodium.

H2 = molecular target: T1, H2 (Cavia porcellus, UniProt P47747); assay: anti-H2 antihistaminic activity in vitro, unstimulated guinea pig right atrium; assay type: cell-based; settings: 25 microg/ml; 5 microg/ml d'histamine, oreillette droite de cobaye non stimulée; read-out: inhibition de l'effet chronotrope induit par l'histamine
T1 construct: sur l'oreillette droite de cobaye non stimulée; from tissue; host or cells: guinea pig right atrium, unstimulated
T1 sequence (P47747 whole entry): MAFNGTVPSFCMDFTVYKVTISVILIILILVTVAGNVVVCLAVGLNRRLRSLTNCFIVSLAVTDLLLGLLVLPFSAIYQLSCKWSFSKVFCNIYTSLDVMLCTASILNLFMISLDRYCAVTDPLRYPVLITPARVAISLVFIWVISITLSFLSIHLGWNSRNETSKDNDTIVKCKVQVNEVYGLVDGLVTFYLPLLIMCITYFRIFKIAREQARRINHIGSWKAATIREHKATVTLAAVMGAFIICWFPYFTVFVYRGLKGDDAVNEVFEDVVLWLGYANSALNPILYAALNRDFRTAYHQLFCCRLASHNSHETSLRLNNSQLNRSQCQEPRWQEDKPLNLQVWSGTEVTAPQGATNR
From the text: L'activité antihistaminique antiH2 a été mise en évidence in vitro. A la concentration de 25 microg/ml le COR37 49C inhibe à 50 % l'effet chronotrope induit par 5 microg/ml d'histamine sur l'oreillette droite de cobaye non stimulée.

Hl = molecular target: T2, Hl (Cavia porcellus, UniProt P31389); assay: anti-H1 antihistaminic activity in vitro, guinea pig ileum; assay type: cell-based; settings: 25 microg/ml; iléon de cobaye; read-out: inhibition des contractions induites par l'histamine
T2 construct: in vitro sur iléon de cobaye; from tissue; host or cells: guinea pig ileum
T2 sequence (P31389 whole entry): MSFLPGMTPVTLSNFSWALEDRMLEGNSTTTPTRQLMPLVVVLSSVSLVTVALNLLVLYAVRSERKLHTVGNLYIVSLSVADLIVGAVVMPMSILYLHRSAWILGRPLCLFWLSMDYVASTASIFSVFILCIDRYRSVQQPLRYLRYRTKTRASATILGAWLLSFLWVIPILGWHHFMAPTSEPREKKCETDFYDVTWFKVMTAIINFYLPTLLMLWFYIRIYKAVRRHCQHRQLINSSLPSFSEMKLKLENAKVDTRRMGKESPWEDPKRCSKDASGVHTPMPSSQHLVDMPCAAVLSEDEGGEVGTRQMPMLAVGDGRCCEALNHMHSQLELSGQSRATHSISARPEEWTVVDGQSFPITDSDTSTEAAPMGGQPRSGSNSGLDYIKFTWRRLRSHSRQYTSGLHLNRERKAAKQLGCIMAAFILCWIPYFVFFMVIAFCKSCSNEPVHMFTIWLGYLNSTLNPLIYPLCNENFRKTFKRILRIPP
From the text: L'activité antihistaminique antiHl a été mise en évidence in vitro sur iléon de cobaye. Le COR37 49C employé à la concentration de 25 microg/ml inhibe à 80 % les contractions induites par l'histamine.

[11] = souris, anesthésie chloroformique profonde, administration intrapéritonéale
[12] = oreillette isolée de cobaye stimulée électriquement, in vitro
[13] = voie intraveineuse 1 mn avant la perfusion d'aconitine, 10 mg/kg
[14] = voie orale 45 mn avant la perfusion d'aconitine, 100 mg/kg
[15] = voie intraveineuse 1 mn avant la perfusion d'aconitine, 5 mg/kg

CC(C)c1ccccc1NCC(O)CNC(C)(C)C (stereo not drawn) [COR37 05C, Dichlorhydrate de l'(isopropyl-2 anilino)-1 tertiobutylamino-3 propanol-2]
mortality ([1]; 500 mg/kg): 0% | mortality ([1]; 750 mg/kg): 40% | mortality ([1]; 1000 mg/kg): 40% | mortality ([2]; 200 mg/kg): 0% | LD50 [3]: 56.6 mg/kg | minimal effective dose [4, 11]: 25 mg/kg | IC30 [5, 12]: 6.22 µM | pourcentage d'augmentation de la quantité d'aconitine provoquant l'apparition d'extrasystoles (E) [6, 13]: 78% | pourcentage d'augmentation de la quantité d'aconitine provoquant l'apparition de morts (M) [6, 13]: 83% | pourcentage d'augmentation de la quantité d'aconitine provoquant l'apparition de tachycardies (T) [6, 13]: 87% | pourcentage d'augmentation de la quantité d'aconitine provoquant l'apparition d'extrasystoles (E) [6, 14]: 83% | pourcentage d'augmentation de la quantité d'aconitine provoquant l'apparition de fibrilloflutters (F) [6, 14]: 43% | pourcentage d'augmentation de la quantité d'aconitine provoquant l'apparition de morts (M) [6, 14]: 107% | pourcentage d'augmentation de la quantité d'aconitine provoquant l'apparition de tachycardies (T) [6, 14]: 99% | pourcentage d'animaux ne présentant pas de fibrilloflutters ([6]; 100 mg/kg): 70%

Cc1cccc(C(C)C)c1NCC(O)CNC(C)(C)C (stereo not drawn) [COR37 06C, Dichlorhydrate de l'(isopropyl-2 méthyl-6 anilino)-1 tertiobutylamino-3 propanol-2]
mortality ([1]; 100 mg/kg): 0% | mortality ([1]; 200 mg/kg): 10% | mortality ([1]; 250 mg/kg): 10% | mortality ([1]; 375 mg/kg): 90% | mortality ([1]; 500 mg/kg): 100% | LD50 ([1]; limits (261-332), read-out: DL50 (the source's name)): 294 mg/kg | mortality ([2]; 100 mg/kg): 0% | mortality ([2]; 200 mg/kg): 100% | minimal effective dose [4, 11]: 25 mg/kg | IC30 [5, 12]: 7.26 µM | pourcentage d'augmentation de la quantité d'aconitine provoquant l'apparition d'extrasystoles (E) [6, 15]: 45% | pourcentage d'augmentation de la quantité d'aconitine provoquant l'apparition de morts (M) [6, 15]: 79% | pourcentage d'augmentation de la quantité d'aconitine provoquant l'apparition de tachycardies (T) [6, 15]: 39% | pourcentage d'augmentation de la quantité d'aconitine provoquant l'apparition d'extrasystoles (E) [6, 14]: 25% | pourcentage d'augmentation de la quantité d'aconitine provoquant l'apparition de fibrilloflutters (F) [6, 14]: 29% | pourcentage d'augmentation de la quantité d'aconitine provoquant l'apparition de morts (M) [6, 14]: 105% | pourcentage d'augmentation de la quantité d'aconitine provoquant l'apparition de tachycardies (T) [6, 14]: 32% | pourcentage d'animaux ne présentant pas de fibrilloflutters ([6]; 100 mg/kg): 60% | durée d'activité anesthésique locale (cornée de cobaye): 30 mn | inhibition at 1 µg/mL [7]: 100%

Cc1ccc(NCC(O)CNC(C)(C)C)cc1 (stereo not drawn) [COR37 09C, Dichlorhydrate du (méthyl-4 anilino)-1 tertiobutylamino-3 propanol-2]
mortality ([1]; 300 mg/kg): 0% | mortality ([2]; 50 mg/kg): 0% | mortality ([2]; 100 mg/kg): 100% | inhibition at 100 µg/mL (PRP de lapin): 79%

CC(C)c1ccccc1NCC(O)CN(C)C (stereo not drawn) [COR37 49C, Dichlorhydrate de l'(isopropyl-2 anilino)-l diméthylamino-3 propanol-2]
mortality ([1]; 300 mg/kg): 0% | mortalité (souris): aucune mortalité | activité anticalcique [8]: inhibent l'augmentation de la force contractile | diminution du cholestérol sérique [9]: 22% | multiplication de l'excrétion urinaire de sodium [10]: 2,2 | inhibition at 25 µg/mL (H2): 50% | inhibition at 25 µg/mL (Hl): 80%

Cc1cccc(C(C)C)c1NCC(O)CN(C)C (stereo not drawn) [COR37 50C, Dichlorhydrate de l' (isopropyl-2 méthyl-6 anilino)-1 diméthylamino-3 propanol-2]
mortality ([1]; 300 mg/kg): 0% | mortalité (souris): aucune mortalité | minimal effective dose [4, 11]: 100 mg/kg | inhibition at 100 µg/mL (PRP de lapin): 80% | activité anticalcique [8]: inhibent l'augmentation de la force contractile

Nc1ncnc2c1ncn2[C@@H]1O[C@H](CO)[C@@H](O)[C@H]1O [adénosine, reference compound]
inhibition at 100 µg/mL (PRP de lapin): 64%

CCN(CC)CCOC(=O)c1ccc(N)cc1 [procaïne]
IC30 [5, 12]: 10 µM

CC(C)NCC(O)COc1cccc2ccccc12 (stereo not drawn) [propranolol, reference compound]
minimal effective dose [4]: 40 mg/kg | IC30 [5]: 4.5 µM

C=C[C@H]1C[N@@]2CC[C@H]1C[C@@H]2[C@@H](O)c1ccnc2ccc(OC)cc12 [quinidine, reference compound]
minimal effective dose [4]: 100 mg/kg | IC30 [5]: 4 µM

From patent EP0148096A1, “Diversely substituted 1-arylamino-3-amino-2-propanols, process for their preparation and their therapeutical application” (CORTIAL S.A., priority 1983, dated 1985)
